# Results as given in US20240018125A1, “CYCLIC ISOTHIOUREA DERIVATIVES AS CXCR4 MODULATORS” (ERMIUM THERAPEUTICS, priority 2020, published 2024).
# Where a name gives a salt, the structure may show the parent alone.
row,melting point [°C],Structure (SMILES)
1,247 to 248,"CN1CCN=C1SCC1=CSC2=Nc3ccccc3CN12 (as salt: hydrochloride) [Example 36, 3-(((1-methyl-4,5-dihydro-1H-imidazol-2-yl)thio)methyl)-5H-thiazolo[2,3-b]quinazoline dihydrochloride]"
2,230 to 235,"CC1(c2ccccc2)CN2C(CSC3=NCc4ccccc4N3)=CSC2=N1 (stereo not shown) (as salt: hydrochloride) [Example 38, 3-(((3,4-dihydroquinazolin-2-yl)thio)methyl)-6-methyl-6-phenyl-5,6-dihydroimidazo[2,1-b]thiazole dihydrochloride]"
3,248 to 249,"C1=C(CSC2=NCc3ccccc3N2)N2CCc3ccccc3N=C2S1 (as salt: hydrochloride) [Example 35, 3-(((3,4-dihydroquinazolin-2-yl)thio)methyl)-5,6-dihydrobenzo[d]thiazolo[3,2-a][1,3]diazepine dihydrochloride]"
4,190 to 195,"Ic1cc2c(c(I)c1I)NC(SCCN1CCCC1)=NC2 (as salt: hydrochloride) [Example 134, 6,7,8-triiodo-2-((2-(pyrrolidin-1-yl)ethyl)thio)-1,4-dihydroquinazoline dihydrochloride]"
5,78 to 85,"c1ccc2c(c1)CN=C(SCCCCN1CCCC1)N2 (as salt: hydrochloride) [Example 137, 2-((4-(pyrrolidin-1-yl)butyl)thio)-1,4-dihydroquinazoline dihydrochloride]"
6,50 to 60,"c1ccc(CC2CN=C(SCCN3CCCCC3)N2)cc1 (stereo not shown) (as salt: hydrochloride) [Example 50, 1-(2-((5-benzyl-4,5-dihydro-1H-imidazol-2-yl)thio)ethyl)piperidine dihydrochloride]"
7,158 to 170,"Cc1ccc(CC2CN3C(CSC4=NCc5ccccc5N4)=CSC3=N2)cc1 (stereo not shown) (as salt: hydrochloride) [Example 122, 3-(((1,4-dihydroquinazolin-2-yl)thio)methyl)-6-(4-methylbenzyl)-5,6-dihydroimidazo[2,1-b]thiazole dihydrochloride]"
8,184 to 190,"C1=C(CSC2=NCc3ccccc3N2)N2C(=Nc3ccccc3C2c2ccccc2)S1 (stereo not shown) (as salt: hydrochloride) [Example 43, 3-(((3,4-dihydroquinazolin-2-yl)thio)methyl)-5-phenyl-5H-thiazolo[2,3-b]quinazoline dihydrochloride]"
9,244 to 247,"CC1(C)CN=C(SCC2=CSC3=NCc4ccccc4CN23)N1 (as salt: hydrochloride) [Example 8, 3-(((5,5-dimethyl-4,5-dihydro-1H-imidazol-2-yl)thio)methyl)-5,10-dihydrobenzo[e]thiazolo[3,2-a][1,3]diazepine dihydrochloride]"
10,50 to 52,"CC1(C)N=C(SCC2=CSC3=NC(Cc4ccccc4)CN23)Nc2ccccc21 (stereo not shown) (as salt: hydrochloride) [Example 87, 6-benzyl-3-(((4,4-dimethyl-1,4-dihydroquinazolin-2-yl)thio)methyl)-5,6-dihydroimidazo[2,1-b]thiazole dihydrochloride]"
11,178 to 182,"CC1CCN(CCSC2=NCc3ccccc3N2)C1 (stereo not shown) (as salt: hydrochloride) [Example 138, 2-((2-(3-methylpyrrolidin-1-yl)ethyl)thio)-1,4-dihydroquinazoline dihydrochloride]"
12,240 to 244,"C1=C(CSC2=NCc3ccccc3N2)N2C(=N[C@H]3CCCC[C@@H]32)S1 (relative stereo) (as salt: hydrochloride) [Example 13, trans-3-(((3,4-dihydroquinazolin-2-yl)thio)methyl)-4a,5,6,7,8,8a-hexahydrobenzo[4,5]imidazo[2,1-b]thiazole dihydrochloride]"

row,Structure (SMILES),melting point [°C]
1,"c1ccc2c(c1)CN=C(SCCN1[C@@H]3CCC[C@H]1CC3)N2 (as salt: hydrochloride) [Example 133, 2-((2-((1R,5S)-8-azabicyclo[3.2.1]octan-8-yl)ethyl)thio)-3,4-dihydroquinazoline dihydrochloride]",52 to 70
